Results reported in PMC9499506, “TNF-α and IL-1β Modulate Blood-Brain Barrier Permeability and Decrease Amyloid-β Peptide Efflux in a Human Blood-Brain Barrier Model” (International Journal of Molecular Sciences, 2022).

Assays:
[1] = test system: BLECs; test: Immunostaining of tight junction proteins in BLECs (localization, area fraction staining); format: cell-based, human; conditions: 10 ng·mL^−1, 24 h; for BLEC morphology and TJ protein localization: immunofluorescence of ZO-1, occludin, claudin-3, claudin-5
Experimental: After 24 h of treatment with or without proinflammatory cytokines, BLECs were fixed and permeabilized, as described in Table 1. Then, a blocking step was performed with Sea Block Blocking Buffer (#37527 from Thermofisher, Rockford, IL, USA) for 30 min. BLECs were incubated for 1 h with the primary antibody in phosphate buffered saline, calcium-magnesium-free (PBS-CMF; 0.2 g·L^−1 KH2PO4, 8.0 g·L^−1 NaCl, 2.87 g·L^−1 Na2HPO4–12H2O, and 0.2 g·L^−1 KCl) with 2% (v/v) normal goat serum (NGS) at room temperature (RT) against targeted proteins, as described in Table 1.
After three washes with PBS-CMF supplemented with 2% NGS, BLECs were incubated with secondary polyclonal antibody (goat anti-rabbit Alexa 568, A11036, Molecular Probes, Eugene, OR, USA) diluted 1:500 in PBS-CMF supplemented with 2% NGS in the dark for 30 min at RT. Then, ProLong™ Diamond Antifade Mountant with DAPI (#P36962, Invitrogen) was used for nuclei staining and mounting. The stained slides were conserved in the fridge. The staining images were taken using a Leica microscope (DMRD; Leica Microsystems, Wetzlar, Germany) and processed using ImageJ software.
Claudin-3 and claudin-5 area fraction staining were subsequently quantified within the BLECs using ImageJ software. Staining images from the same experiment were taken with the same threshold according to the staining, and could thus be compared with each other. Due to the absence of BLEC delineation, the total fraction area staining for each image was thus quantified and normalized by the number of nuclei. Studies were performed with at least three independent experiments and at least three randomized staining images per experiment containing around 50 BLECs each.

[2] = test system: BLECs; conditions: MTT assay; 10 ng·mL^−1, 24 h, abluminal compartment
Experimental: An MTT assay was performed as a preliminary test to determine their effect on BLEC viability and to validate the chosen concentrations. Dimethyl sulfoxide (DMSO) at 10% (v/v) was used as a positive control of cell toxicity.
After 6 days of coculture, TNF-α or IL-1β were added to the basolateral compartment (brain side) at 10 ng·mL^−1 for 24 h, at 37 °C and 5% CO2, to mimic CNS inflammation condition. Each condition was studied in triplicate.
The standard MTT [3-(4,5-dimethylthiazol-2-yl)-2,5-diphenyltetrazolium bromide] assay (AR1156, Boster Biological Technology, Pleasanton, CA, USA) was performed to determine BLEC viability. Briefly, after coculture treatments, culture medium was removed and replaced with worm Ringer-Hepes (RH; 150 mM NaCl, 5.2 mM KCl, 2.2 mM CaCl2, 0.2 mM MgCl2–6H2O, 6 mM NaHCO3, 5 mM HEPES, 2.8 mM glucose; pH: 7.4) in basolateral compartment and with MTT solution (0.5 mg·mL^−1) in RH at in the opposite compartment for 3 h at 37 °C and 5% CO2. […] Aliquot was sampled in 96-well plate and the optical density (OD) was measured with a microplate reader (Synergy H1, BioTek. Colmar, France) at the wavelength of 570 and 630 nm. The percentage of relative cell viability compared to the control condition was subsequently determined using the following formula: % relative cell viability = ((OD570 − OD630) condition)/((OD570 – OD630)control) × 100.

[3] = immunofluorescence, ImageJ, normalized by number of nuclei

tumor necrosis factor-α [TNF-α]
BLEC morphology and TJ protein localization [1]: induces a change in BLEC morphology and an increase of claudin-3 and claudin-5 cytoplasmic staining
increase of claudin-5 area fraction staining compared to IL-1β treatment [1, 3]: 162.1%
increase of claudin-5 area fraction staining compared to control condition [1, 3]: 161.8%
claudin-3 area fraction staining, increase compared to IL-1β treatment ([1]; immunofluorescence, ImageJ, normalized by number of nuclei, printed as 'at'): 129.8%

interleukin-1β [IL-1β]
effect on BLEC viability [2]: did not affect BLEC viability
BLEC morphology and TJ protein localization [1]: did not cause changes in BLEC morphology and TJ protein localization
